For orientation: EC50 means the concentration at which the effect is half-maximal. Read a high EC50 as lower potency in that assay.

The record followed here is patent US20230391760A1, “HETEROCYCLIC GLP-1 AGONISTS” (Gasherbrum Bio, Inc., priority 2020, published 2023).

In the assay the target is GLP-1 Receptor (Homo sapiens, UniProt P43220). The assay can be described thus: GLP-1R agonist cAMP stimulation assay (HEK293/GLP1R/CRE-LUC cells, cAMP dynamic 2 Kit). The assay is classed as cell-based. The conditions noted are these: HEK293/CRE-Luc cell line stably expressing the GLP-1 Receptor, 30 min at 37° C. A digest of the protocol: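 HEK293 cells stably expressing human GLP-1R with CRE-luciferase, 1000 cells/well in DPBS with 0.5 mM IBMX and 0.1% BSA, treated with compound in 1/2-log serial dilution for 30 min at 37 °C. cAMP then detected by HTRF (cAMP-d2 plus anti-cAMP cryptate), 1 h at room temperature in the dark.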
GLP-1 Receptor, sequence (P43220 24-463, species assumed): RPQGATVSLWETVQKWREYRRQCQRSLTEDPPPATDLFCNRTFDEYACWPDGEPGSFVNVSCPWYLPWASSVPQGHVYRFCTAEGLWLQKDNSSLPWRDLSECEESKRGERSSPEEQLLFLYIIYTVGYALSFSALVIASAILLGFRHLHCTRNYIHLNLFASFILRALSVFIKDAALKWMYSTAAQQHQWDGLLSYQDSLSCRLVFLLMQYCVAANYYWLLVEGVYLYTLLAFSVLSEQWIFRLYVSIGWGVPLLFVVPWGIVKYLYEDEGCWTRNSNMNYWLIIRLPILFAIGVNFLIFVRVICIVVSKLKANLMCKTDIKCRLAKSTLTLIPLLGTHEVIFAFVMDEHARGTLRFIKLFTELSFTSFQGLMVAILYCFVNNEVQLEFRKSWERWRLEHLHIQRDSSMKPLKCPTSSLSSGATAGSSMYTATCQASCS

As to `CC1(c2ccc(Cl)cc2F)Oc2cccc(C3CCN(Cc4nc5cc(-c6noc(=O)[nH]6)ccc5n4C[C@@H]4CCO4)CC3)c2O1` (mixture of isomers) [Compound 239a, 3-(2-((4-(2-(4-chloro-2-fluorophenyl)-2-methylbenzo[d][1,3]dioxol-4-yl)piperidin-1-yl)methyl)-1-(((S)-oxetan-2-yl)methyl)-1H-benzo[d]imidazol-5-yl)-1,2,4-oxadiazol-5(4H)-one], the concentration for a half-maximal effect (EC50) was found to be 0.071 nM.
Then `CC1(c2ccc(Cl)cc2F)Oc2cccc(C3CCN(Cc4nc5cc(-c6nnc(C(F)(F)F)[nH]6)cnc5n4C[C@H]4CCCO4)CC3)c2O1` (stereo partly drawn) [Compound 245a, 4-[2-(4-chloro-2-fluorophenyl)-2-methyl-2H-1,3-benzodioxol-4-yl]-1-[(3-{[(2R)-oxolan-2-yl]methyl}-6-[5-(trifluoromethyl)-4H-1,2,4-triazol-3-yl]-3H-imidazo[4,5-b]pyridin-2-yl)methyl]piperidine], with 2.6 nM; and `N#Cc1ccc(COc2cccc(C3CCN(Cc4nc5cc(-c6nnc(C(F)(F)F)[nH]6)ncc5n4C[C@@H]4CCO4)CC3)n2)c(F)c1` [Compound 313a, 3-fluoro-4-{[(6-{1-[(3-{[(2S)-oxetan-2-yl]methyl}-6-[5-(trifluoromethyl)-4H-1,2,4-triazol-3-yl]-3H-imidazo[4,5-c]pyridin-2-yl)methyl]piperidin-4-yl}pyridin-2-yl)oxy]methyl}benzonitrile], with 0.012 nM.
The same measure for `C[C@]1(c2ccc(Cl)cc2F)Oc2cccc(C3CCN(Cc4nc5cc(-c6nnc(C#N)[nH]6)ncc5n4C[C@@H]4CCO4)CC3)c2O1` [Compound 444a, 5-[2-({4-[(2S)-2-(4-chloro-2-fluorophenyl)-2-methyl-2H-1,3-benzodioxol-4-yl]piperidin-1-yl}methyl)-3-{[(2S)-oxetan-2-yl]methyl}-3H-imidazo[4,5-c]pyridin-6-yl]-4H-1,2,4-triazole-3-carbonitrile]: 0.0037 nM.
Turning to `CC1(c2ccc(C#N)cn2)Oc2cccc(C3CCN(Cc4nc5cc(-c6nnc(C(F)(F)F)[nH]6)ccc5n4C[C@@H]4CCO4)CC3)c2O1` (stereo partly drawn) [Compound 354a, 6-(2-methyl-4-{1-[(1-{[(2S)-oxetan-2-yl]methyl}-5-[5-(trifluoromethyl)-4H-1,2,4-triazol-3-yl]-1H-1,3-benzodiazol-2-yl)methyl]piperidin-4-yl}-2H-1,3-benzodioxol-2-yl)pyridine-3-carbonitrile], the half-maximal effective concentration (EC50) was 0.11 nM.
The same measure for `Fc1cc(Cl)ccc1COc1cccc(C2=CCN(Cc3nc4cc(-c5nnc(C(F)(F)F)[nH]5)cnc4n3C[C@@H]3CCO3)CC2)c1` [Compound 319a, 4-{3-[(4-chloro-2-fluorophenyl)methoxy]phenyl}-1-[(3-{[(2S)-oxetan-2-yl]methyl}-6-[5-(trifluoromethyl)-4H-1,2,4-triazol-3-yl]-3H-imidazo[4,5-b]pyridin-2-yl)methyl]-1,2,3,6-tetrahydropyridine]: 0.36 nM.
In the case of `O=C(Nc1ccc2c(c1)nc(CN1CCC(c3cccc(OCc4ccc(Cl)cc4F)n3)CC1)n2C[C@@H]1CCO1)[C@@H]1COC2(CCC2)C1` [Compound 201a, (7S)—N-{2-[(4-{6-[(4-chloro-2-fluorophenyl)methoxy]pyridin-2-yl}piperidin-1-yl)methyl]-1-{[(2S)-oxetan-2-yl]methyl}-1H-1,3-benzodiazol-5-yl}-5-oxaspiro[3.4]octane-7-carboxamide], the EC50 was found to be 3.1 nM.
The same measure for `Cc1nnc(-c2cc3nc(CN4CCC(c5cccc6c5O[C@@](C)(c5ccc(C#N)cc5F)O6)CC4)n(C[C@@H]4CCO4)c3cn2)[nH]1` [Compound 288a, 3-fluoro-4-[(2S)-2-methyl-4-(1-{[6-(5-methyl-4H-1,2,4-triazol-3-yl)-3-{[(2S)-oxetan-2-yl]methyl}-3H-imidazo[4,5-c]pyridin-2-yl]methyl}piperidin-4-yl)-2H-1,3-benzodioxol-2-yl]benzonitrile]: 0.0087 nM.
Then `Fc1cc(Cl)ccc1COc1nc(N2CCN(Cc3nc4cc(-c5nnc(C(F)(F)F)[nH]5)ncc4n3C[C@@H]3CCO3)CC2)ncc1F` [Compound 490a, 4-[(4-chloro-2-fluorophenyl)methoxy]-5-fluoro-2-{4-[(3-{[(2S)-oxetan-2-yl]methyl}-6-[5-(trifluoromethyl)-4H-1,2,4-triazol-3-yl]-3H-imidazo[4,5-c]pyridin-2-yl)methyl]piperazin-1-yl}pyrimidine], with 0.086 nM; and `Fc1cc(Cl)ccc1COc1cccc(C2CCN(Cc3nc4cc(-c5nnc(C(F)(F)F)[nH]5)ncc4n3C[C@@H]3CCO3)CC2)n1` [Compound 435a, 2-[(4-chloro-2-fluorophenyl)methoxy]-6-{1-[(3-{[(2S)-oxetan-2-yl]methyl}-6-[5-(trifluoromethyl)-4H-1,2,4-triazol-3-yl]-3H-imidazo[4,5-c]pyridin-2-yl)methyl]piperidin-4-yl}pyridine], with 0.018 nM.
The molecule `C[C@]1(c2ccc(Cl)cc2F)Oc2cccc(C3CCN(Cc4nc5cc(-c6nnc(C(F)(F)F)[nH]6)nnc5n4C[C@@H]4CCO4)CC3)c2O1` [Compound 359a, 4-[(2S)-2-(4-chloro-2-fluorophenyl)-2-methyl-2H-1,3-benzodioxol-4-yl]-1-[(7-{[(2S)-oxetan-2-yl]methyl}-3-[5-(trifluoromethyl)-4H-1,2,4-triazol-3-yl]-7H-imidazo[4,5-c]pyridazin-6-yl)methyl]piperidine] returned an EC50 of 0.014 nM.
The same measure for `Fc1cc(Cl)ccc1COc1cccc(C2CCN(Cc3nc4cc(-c5nnc(C(F)(F)F)[nH]5)cnc4n3C[C@@H]3CCO3)CC2)n1` [Compound 327a, 2-[(4-chloro-2-fluorophenyl)methoxy]-6-{1-[(3-{[(2S)-oxetan-2-yl]methyl}-6-[5-(trifluoromethyl)-4H-1,2,4-triazol-3-yl]-3H-imidazo[4,5-b]pyridin-2-yl)methyl]piperidin-4-yl}pyridine]: 0.013 nM.
The same measure for `N#Cc1ccc(COc2ccc(F)c(N3CCN(Cc4nc5cc(-c6nnc(C(F)(F)F)[nH]6)nnc5n4C[C@@H]4CCO4)CC3)n2)c(F)c1` [Compound 503a, 3-fluoro-4-{[(5-fluoro-6-{4-[(7-{[(2S)-oxetan-2-yl]methyl}-3-[5-(trifluoromethyl)-4H-1,2,4-triazol-3-yl]-7H-imidazo[4,5-c]pyridazin-6-yl)methyl]piperazin-1-yl}pyridin-2-yl)oxy]methyl}benzonitrile]: 0.078 nM; for `CC1(c2ccc(Cl)cc2F)Oc2cccc(C3CCN(Cc4nc5cc(-c6nnn[nH]6)ccc5n4C[C@@H]4CCO4)CC3)c2O1` (stereo partly drawn) [Compound 232a, 2-((4-(2-(4-chloro-2-fluorophenyl)-2-methylbenzo[d][1,3]dioxol-4-yl)piperidin-1-yl)methyl)-1-(((S)-oxetan-2-yl)methyl)-5-(1H-tetrazol-5-yl)-1H-benzo[d]imidazole]: 0.16 nM.
Then `O=C(O)c1ccc2c(c1)nc(CN1CC=C(c3cccc(OCc4ccc(Cl)cc4F)n3)CC1)n2C[C@@H]1CCO1` [Compound 111a, (S)-2-((6-((4-chloro-2-fluorobenzyl)oxy)-3′,6′-dihydro-[2,4′-bipyridin]-1′(2′H)-yl)methyl)-1-(oxetan-2-ylmethyl)-1H-benzo[d]imidazole-5-carboxylic acid], with 1.09 nM; and `N#Cc1ccc(COc2cccc(C3=CCN(Cc4nc5cc(-c6nnc(C(F)(F)F)[nH]6)cnc5n4C[C@@H]4CCO4)CC3)n2)c(F)c1` [Compound 321a, 3-fluoro-4-[({1′-[(3-{[(2S)-oxetan-2-yl]methyl}-6-[5-(trifluoromethyl)-4H-1,2,4-triazol-3-yl]-3H-imidazo[4,5-b]pyridin-2-yl)methyl]-1′,2′,3′,6′-tetrahydro-[2,4′-bipyridin]-6-yl}oxy)methyl]benzonitrile], with 0.022 nM.
`CO[C@@H](C)Cn1c(CN2CCC(c3cccc4c3O[C@@](C)(c3ccc(C#N)cc3F)O4)CC2)nc2cc(-c3nnc(C(F)(F)F)[nH]3)ncc21` [Compound 454a, 3-fluoro-4-[(2S)-4-[1-({3-[(2S)-2-methoxypropyl]-6-[5-(trifluoromethyl)-4H-1,2,4-triazol-3-yl]-3H-imidazo[4,5-c]pyridin-2-yl}methyl)piperidin-4-yl]-2-methyl-2H-1,3-benzodioxol-2-yl]benzonitrile] returned a concentration giving a half-maximal response (EC50) of 0.17 nM.
In turn, `Cc1nc(-c2nnc(C(F)(F)F)[nH]2)cc2nc(CN3CCC(c4cccc5c4O[C@@](C)(c4ccc(Cl)cc4F)O5)CC3)n(C[C@@H]3CCO3)c12` [Compound 302a, 4-[(2S)-2-(4-chloro-2-fluorophenyl)-2-methyl-2H-1,3-benzodioxol-4-yl]-1-[(4-methyl-3-{[(2S)-oxetan-2-yl]methyl}-6-[5-(trifluoromethyl)-4H-1,2,4-triazol-3-yl]-3H-imidazo[4,5-c]pyridin-2-yl)methyl]piperidine] gave an EC50 of 0.17 nM.
Then `CC(=O)Nc1ccc2c(c1)nc(CN1CCC(c3cccc4c3OC(C)(c3ccc(Cl)cc3F)O4)CC1)n2C[C@@H]1CCO1` (stereo partly drawn) [Compound 240a, N-(2-((4-(2-(4-chloro-2-fluorophenyl)-2-methylbenzo[d][1,3]dioxol-4-yl)piperidin-1-yl)methyl)-1-(((S)-oxetan-2-yl)methyl)-1H-benzo[d]imidazol-5-yl)acetamide], with 1.1 nM.
The same measure for `CC1(c2ccc(C#N)cc2F)Oc2cccc(C3CCN(Cc4nc5cc(-c6noc(=O)[nH]6)cnc5n4C[C@@H]4CCO4)CC3)c2O1` (stereo partly drawn) [Compound 329a, 3-fluoro-4-(2-methyl-4-{1-[(3-{[(2S)-oxetan-2-yl]methyl}-6-(5-oxo-4,5-dihydro-1,2,4-oxadiazol-3-yl)-3H-imidazo[4,5-b]pyridin-2-yl)methyl]piperidin-4-yl}-2H-1,3-benzodioxol-2-yl)benzonitrile]: 0.25 nM; for `Cc1cnc(C(=O)Nc2ccc3c(c2)nc(CN2CCC(c4cccc(OCc5ccc(Cl)cc5F)n4)CC2)n3C[C@@H]2CCO2)c(C)c1` [Compound 184a, N-{2-[(4-{6-[(4-chloro-2-fluorophenyl)methoxy]pyridin-2-yl}piperidin-1-yl)methyl]-1-{[(2S)-oxetan-2-yl]methyl}-1H-1,3-benzodiazol-5-yl}-3,5-dimethylpyridine-2-carboxamide]: 2 nM.
